Where a SMILES comes first, the peptide text is derived from it. The star is where a group is joined. Cbz = O=C(OCc1ccccc1)*

Assay [1] relates to GCaMP3-transfected cultured cortical neurons. Description: Calcium imaging of bicuculline-stimulated GCaMP3-transfected cortical neurons. It counts as cell-based, mouse. The following applies: for amplitude of bicuculline-induced calcium transients: 1 μM bicuculline, biotin-epoxomicin 25 μM co-administered.
Description: Bicuculline treatment was administered as a 1 μM stimulation in calcium imaging buffer in a perfusion setup. […] Each treatment was monitored for three minutes prior to washout. […] Cells were ensured to be healthy at the end of the imaging process by stimulating with 55 mM KCl and washing out and assessing for a proper calcium signal. Quantification was done by picking multiple regions of interests in primary and secondary dendrites across multiple coverslips over different imaging days. Data was analyzed using the Time Series Analyzer V3.0 ImageJ plugin and the ROI manager. Data were pooled for all the ROIs to generate a single N value. Brains from P0-P3 mouse pups (Cre GCaMP3; Nestin-Cre ER) were dissected and plated in Neurobasal-A with B-27 supplement for two weeks. At DIV7, 4-hydroxytamoxifen (4-HT, concentration) was added to induce GCaMP expression. Neurons were imaged in a calcium-imaging buffer (130 mM NaCl, 3 mM KCl, 2.5 mM CaCl2, 0.6 mM MgCl2, 10 mM Hepes, 10 mM glucose, 1.2 mM NaHCO3 pH 7.45). Peptides were collected, filtered, and dialyzed and then lyophilized prior to resuspension in 1 mL of MilliQ water and addition onto GCaMP-encoding neurons. […] Peptides treated with Proteinase K were spun through a 10 kDa MW cutoff filter prior to addition onto neurons in order to remove Proteinase K. Random peptide mixtures contained HIV-TAT, a polybasic peptide mixture, or a crude peptide prep.
The target of assay [2] is T1, Neuronal Membrane Proteasome (NMP) (Mus musculus, UniProt O55234+P70195+Q60692).
T1 construct: we believe that the endogenous NMP is catalytically active; endogenous in cells; host or cells: primary cultured cortical neurons from C57Bl/6 mouse embryos
Description: Release of 35S-radiolabeled peptides (SNAPPs) from cortical neurons into media, liquid scintillation. It is filed as cell-based. The note with it: baseline spontaneous activity.
Description: Cortical neurons were cultured for 12-18 days in vitro. Neurons were membrane depolarized with 55 mM extracellular KCl by addition of prewarmed depolarization buffer (55 mM KCl, 0.2 mM CaCl2, 1 mM MgCl2, 10 mM HEPES pH7.5) or a mock buffer (55 mM NaCl, final) in fresh neuronal growth media as previously described (Nature 455: 1198-1204 (2008)). Labeling was done in Neurobasal growth media with B27 supplement and without methionine or cysteine (Life Technologies, special order). ^35S methionine-cysteine (EasyTag PerkinElmer) was incorporated at 55 mCi in the cys/met free growth medium. Where indicated, MG132 (25 mM, Cell Signaling) and ATPγS (1 mM, Sigma) was added during the radioactive labeling window, 15 minutes prior to stimulation and was kept in for the duration of the stimulation.
For any chase experiment, free radioactivity was washed out with phosphate-buffered saline and replaced with fresh neuronal growth medium. […]
Quantification of SNAPPs was done by quantifying the amount of radioactivity in each sample by liquid scintillation (Wallac 1410). […]

Assay [3] addresses T2, NMP (Mus musculus, UniProt O55234+P70195+Q60692).
T2 construct: we purified NMPs from neuronal plasma membranes using a 20S purification matrix; endogenous in cells; host or cells: cultured neurons; detergent-extracted plasma membranes, isolated with the 20S proteasome purification kit (Enzo Life Sciences), assayed on beads
Nature of the assay: Catalytic activity of purified NMP with fluorescent substrate SUC-LLVY-AMC. It counts as biochemical. The note with it: low concentration (0.05% final), purified NMP in vitro. The method, then: In some embodiments, proteasome purification was performed as follows. Cells were treated and then immediately put on ice before purifications were performed as previously described (Methods Mol Biol 832, 423-432, 2012). Briefly, proteasomes were purified out of neuronal cytosol and detergent-extracted neuronal plasma membranes using the 20S proteasome purification kit (Enzo Life Sciences) or the 26S proteasome purification kit (UBPBio). For western blots, samples were denatured at 65° C. for 5 minutes in SDS sample buffer, resolved by SDS PAGE, transferred to nitrocellulose, and immunoblotted. For catalytic activity assays, ⅙th of the bead volume following proteasome purification was resuspended in activity assay buffer (20 mM Tris-HCl, pH8.0, 5 mM ATP, 5 mM MgCl2, 1 mM DTT). 26S proteasomal activity was assessed by the addition of 10 μM of SUC-LLVY-AMC (Enzo Life Sciences). The contribution of 20S proteasomal activity was assessed by the comparison of 26S proteasome activity to that of total proteasome activity (26S+20S), measured by the activity of samples containing SDS at a final concentration of 0.05%.

Assay [4] deals with NMP. Nature of the assay: NMP expression by surface biotinylation, streptavidin pulldown and western blot in treated cortical neurons. It is filed as cell-based. The following applies: DIV12 mouse neurons, 1 μM for 12 hours. The method, then: Surface biotin-labeling was performed as previously described (Nat Neurosci 12, 879-887 2009). Whole mouse brains, cultured cells or whole animal tissue were obtained where indicated and each sample was labeled using Sulfo-NHS-LC-Biotin (ThermoFisher). Cultured cells were washed in pH 8.0 PBS (Gibco) with 1 mM CaCl2 and 2 mM MgCl2 (PBSCM) and treated with 1 mg/mL Sulfo-NHS-LC-Biotin dissolved in PBSCM for 20 minutes at 4° C. before the reaction was quenched for 10 minutes in 50 mM glycine in PBSCM. Intact tissue was quickly and manually chopped, following biotinylation for only 10 minutes at 4° C. in 0.5 mg/mL Sulfo-NHS-LC-Biotin prior to quenching the reaction.
Primary, human central nervous system (CNS) tissue, gestational weeks 19-21, were obtained under surgical written consent following protocols approved by the Johns Hopkins Institutional Review Board, based on its designation as biological waste. Tissue was mechanically chopped at 4° C., and immediately processed for surface biotinylation. For streptavidin pulldown experiments lysed cells were incubated with high capacity streptavidin agarose beads overnight and then washed thrice with RIPA buffer before resuspension in SDS sample buffer.
For western blots, samples were boiled for 5 minutes in SDS sample buffer, resolved by SDS PAGE, transferred to nitrocellulose, and immunoblotted. […]

Take `CC(C)C[C@@H](C=O)NC(=O)[C@H](CC(C)C)NC(=O)[C@H](CC(C)C)NC(=O)OCc1ccccc1` [MG-132] (Cbz-Leu-Leu-Leu-aldehyde): the “amplitude of bicuculline-induced calcium transients” value in assay [1] is on record as “similar”. Further, the “neuronal activity-induced calcium signaling” value in assay [1] (acute addition onto neurons, within seconds) is “suppressed”. Besides, the “peptide release under non-stimulating conditions” value in assay [2] is given as “inhibited”. For the compound `CCCCCCCCCCCCOS(=O)(=O)[O-].[Na+]` [SDS, sodium-dodecyl-sulfate], on NMP [3], the “catalytic activity of the NMP” value is “potently stimulated”. For biotin-epoxomicin, the “amplitude of bicuculline-induced calcium transients” value in assay [1] is “strongly and rapidly attenuated”. Take “Aβ1-42: Aβ1-42 peptide used to treat mouse cortical neurons as an Alzheimer's disease model”: in the assay with NMP [4], the “expression of proteasome subunits in the streptavidin pulldown (NMP expression)” value is on record as “significant decrease”.

Source of the values: US10775391B2, “Nervous system-specific transmembrane proteasome complex that modulates neuronal signaling through extracellular signaling via brain activity peptides” (THE JOHNS HOPKINS UNIVERSITY, priority 2015, dated 2020).
